Source: US11613780B2, “Materials and methods for identifying gyrase inhibitors” (THE FLORIDA INTERNATIONAL UNIVERSITY BOARD OF TRUSTEES, priority 2016, dated 2023)
Entries after “also recorded” stand apart in the source; their conditions may differ.

How the values were obtained:
[1] = tested on: expression of firefly luciferase under the control of the PgyrA (screen for DNA gyrase inhibitors); experiment: Firefly luciferase expression from PgyrA divergently coupled to IPTG-induced PT7Al/O4 (luciferase assay); assay type: cell-based, E. coli; details: for expression of firefly luciferase (other antibiotics): FIG. 12F, antibiotics that are not gyrase inhibitors; for expression of firefly luciferase of FL #1181: FL #1181, in the presence of IPTG, FIG. 12E
Procedure: (§1) FIGS. 5A-5D. (FIG. 5A) and (FIG. 5B) Inhibition of the supercoiling-sensitive PgyrA by E. coli […] on the chromosome. E. coli strains FL1181 (MG1655(DE3)ΔlacZ attTn7::PT7Al/O4lacZ-PgyrAluc; squares) and FL1182 (VS111(DE3)ΔlacZ attTn7::PT7Al/O4lacZ-PgyrAluc; circles) were used. The activities of β-galactosidase (Miller's units) and firefly luciferase (RLU) were plotted against the IPTG concentration added to the cell cultures. […] Overnight cell cultures were diluted 100-fold and grown until OD600 reached 0.2. Then 0.5 mM of IPTG and various concentrations of ciprofloxacin or other antibiotics were added to the cell cultures. After additional 30 min incubation, the activities of β-galactosidase and firefly luciferase were measured as described under Materials and Methods. (FIG. 5C) Ciprofloxacin inhibited the expression of β-galactosidase.
Briefly, a 5.1 kb DNA fragment carrying the divergently coupled PgyrA and PT7Al/O4 promoters with the luc and lacZ genes was inserted to the attTn7 site of the E. coli chromosome (84 min of the chromosome) to generate FL1181 and FL1182. In both strains, the IPTG-inducible PT7Al/O4 controls the expression of β-galactosidase. Using similar approach, the following E. coli strains were generated: FL1181, FL1182, FL1198, FL1199, FL1200, FL1202, FL1203, and FL1204.
Luciferase Assay was used to verify the expression of luciferase in various E. coli strains carrying different plasmid DNA templates. Briefly, E. coli cells carrying different plasmids were grown overnight in LB. Antibiotics were added to LB as needed. The overnight culture was then diluted (1:100) in fresh LB in the presence of different concentrations of IPTG, and grown until the OD600 nm reached approximately 0.5. Next, 50 μl of cells were mixed with 10 μl of 1 M K2HPO4 (pH 7.8) and 20 mM EDTA, quickly frozen in liquid nitrogen for 3 min, and equilibrated to room temperature for 30 min to yield about 60 μl of cell lysate. Then, the cell lysate was added with 300 μl freshly prepared lysis mix containing 1×cell culture lysis reagent (CCLR), 1.25 mg/ml lysozyme, and 2.5 mg/ml BSA, and incubated for 10 min at room temperature. Finally, 100 μl of Luciferase Assay Reagent (Promega Corporation, Madison, Wis.) was added to 20 μl of the cell lysate and used for light measurement by using a Promega GloMax 20/20 Single-Tube Luminometer.

[2] = tested on: expression of β-galactosidase (lacZ) under the control of PT7Al/O4; experiment: β-galactosidase expression from PT7Al/O4 (Miller's assay); assay type: cell-based, E. coli; details: FL1181 and FL1182, 0.5 mM IPTG, 30 min incubation; FIG. 5C
Procedure: as §1, with “β-galactosidase. […]” for “β-galactosidase.”
The expression level of β-galactosidase was measured by Miller's assay as described by Miller et al. Briefly, 100 mL of LB was inoculated with 1 mL of overnight bacterial cell culture until OD600 reaches about 0.2. […] After cell debris was removed by centrifugation at 13,000 rpm for 1 min, OD420 and OD550 were measured in a Cary 50 spectrophotometer. β-Galactosidase activities (E) were calculated using the following equation: […]

In the case of CC1(C)S[C@@H]2[C@H](NC(=O)[C@H](N)c3ccccc3)C(=O)N2[C@H]1C(=O)O [ampicillin], the “expression of firefly luciferase (other antibiotics)” value [1] is reported as “inhibited; also recorded: inhibition”.
In the case of O=C(O)c1cn(C2CC2)c2cc(N3CCNCC3)c(F)cc2c1=O [ciprofloxacin], the “expression of firefly luciferase” value ([1]; E. coli strains FL1181 and FL1182 (divergently coupled PgyrA and PT7Al/O4), in the presence of IPTG (0.5 mM), 30 min incubation, FIG. 5D) is reported as “substantially increased; also recorded: greatly enhanced; also recorded: specifically enhanced”, the “expression of firefly luciferase of FL #1181” value (from here on “expression … of FL #1181”) [1] is reported as “stimulation” and the “expression of β-galactosidase” value [2] is reported as “inhibited”.
In the case of CCN1CCN(c2cc3c(cc2F)c(=O)c(C(=O)O)cn3C2CC2)CC1 [enrofloxacin], the “expression … of FL #1181” value [1] is reported as “stimulation”.
In the case of CCn1cc(C(=O)O)c(=O)c2cc(F)c(N3CCNCC3)cc21 [norfloxacin], the “expression … of FL #1181” value [1] is reported as “stimulation”.
With CN[C@@H]1[C@H](O)[C@H](NC)[C@H]2O[C@@]3(O)C(=O)C[C@@H](C)O[C@H]3O[C@@H]2[C@H]1O [spectinomycin] the “expression of firefly luciferase (other antibiotics)” value [1] was “inhibition”.
